In patent US5990144A, “4-aminoalkoxy-1,3-dihydrobenzoimidazol-2-one dopamine autoreceptor agonists” (American Home Products Corporation, priority 1998, dated 1999):

Tests used:
[1] = target: T1, D2 (dopamine autoreceptor) (Rattus norvegicus, UniProt P61169); test: Affinity for dopamine autoreceptor (D2 high-affinity agonist state), 3H-quinpirole binding, rat striatal brain tissue; conditions: read-out: IC50 (nM) D2 Quin.
T1 construct: homogenized rat striatal brain tissue; from tissue; host or cells: rat striatal brain tissue (homogenate)
Protocol: Affinity for the dopamine autoreceptor was established by a modification of the standard experimental test procedure of Seemen and Schaus, European Journal of Pharmacology 203: 105-109, 1991, wherein homogenized rat striatal brain tissue is incubated with ^3 H-quinpirole (Quin.) and various concentrations of test compound, filtered and washed and counted in a Betaplate scintillation counter.

[2] = target: T2, dopamine D-2 receptor (Rattus norvegicus, UniProt P61169); test: Affinity for dopamine D-2 receptor, 3H-spiroperidol (Spiper.) binding, homogenized limbic brain tissue; conditions: read-out: IC50 (nM) D2 Spiper
T2 construct: homogenized limbic brain tissue; from tissue; host or cells: limbic brain tissue (homogenate)
Protocol: High affinity for the dopamine D-2 receptor was established by the standard experimental test procedure of Fields, et al., Brain Res., 136, 578 (1977) and Yamamura et al., eds., Neurotransmitter Receptor Binding, Raven Press, N.Y. (1978) wherein homogenized limbic brain tissue is incubated with ^3 H-spiroperidol (Spiper.) and various concentrations of test compound, filtered and washed and shaken with Hydrofluor scintillation cocktail (National Diagnostics) and counted in a Packard 460 CD scintillation counter.

T1 sequence (P61169 whole entry): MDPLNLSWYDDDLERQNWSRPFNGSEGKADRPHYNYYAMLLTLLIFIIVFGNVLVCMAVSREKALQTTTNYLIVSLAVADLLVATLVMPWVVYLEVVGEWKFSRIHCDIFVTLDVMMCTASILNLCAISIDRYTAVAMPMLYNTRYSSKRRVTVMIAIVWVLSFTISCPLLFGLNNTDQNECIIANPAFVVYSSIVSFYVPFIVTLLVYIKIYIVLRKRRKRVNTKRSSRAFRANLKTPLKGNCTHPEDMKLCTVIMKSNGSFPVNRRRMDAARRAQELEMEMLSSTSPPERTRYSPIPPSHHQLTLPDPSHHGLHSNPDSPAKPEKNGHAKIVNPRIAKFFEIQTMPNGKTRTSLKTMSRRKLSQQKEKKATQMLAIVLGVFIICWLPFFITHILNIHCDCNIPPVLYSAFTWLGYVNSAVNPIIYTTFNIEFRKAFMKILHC
T2 sequence (P61169 whole entry): as above

| IC50 [1] [nM] | IC50 [2] [nM] | SMILES |
| --- | --- | --- |
| 0.48 | 34.6 | O=c1[nH]c2cc(Cl)cc(OCCNCc3ccccc3)c2[nH]1 [Example 9, 4-(2-Benzylamino-ethoxy)-6-chloro-1,3-dihydro-benzoimidazol-2-one] |
| 0.47 | 58 | O=c1[nH]c2cc(Cl)cc(OCCNCc3cccs3)c2[nH]1 [Example 10, 6-Chloro-4-{2-[(thiophen-2-ylmethyl)-amino]-ethoxy}-1,3-dihydro-benzoimidazol-2-one] |
| 0.31 | 67 | O=c1[nH]c2cc(Cl)cc(OCCNCc3ccsc3)c2[nH]1 [Example 11, 6-Chloro-4-{2-[(thiophen-3-ylmethyl)-amino]-ethoxy}-1,3-dihydro-benzoimidazol-2-one] |
| 12 | 658 | O=c1[nH]c2cccc(OCCN3CCc4ccccc4C3)c2[nH]1 [Example 12, 4-[2-(2,3-Dihydro-1H-isoquinolin-2yl)-ethoxy]-1,3-dihydro-benzoimidazol-2-one] |
| 0.3 | 30 | O=c1[nH]c2cccc(OCCNCCCc3ccccc3)c2[nH]1 [Example 13, 4-[2-(3-Phenyl-propylamine)-ethoxy]-1,3-dihydro-benzoimidazol-2-one] |

Further lines, the compound ahead of its results:

| SMILES | IC50 [1] [nM] | IC50 [2] [nM] |
| --- | --- | --- |
| O=c1[nH]c2cccc(OCCNCc3ccccc3)c2[nH]1 [Example 1, 4-(2-Benzylamino-ethoxy)-1,3-dihydro-benzoimidazol-2-one] | 0.51 | 60.6 |
| Cc1ccc(CNCCOc2cccc3[nH]c(=O)[nH]c23)cc1 [Example 2, 4-[2-(4-Methyl-benzylamino)-ethoxy]-1,3-dihydro-benzoimidazol-2-one] | 0.29 | 28.5 |
| Cn1c(=O)[nH]c2cccc(OCCNCc3ccccc3)c21 [Example 3, 4(7)-(2-Benzylamino-ethoxy)-1-(3)-methyl-1,3-dihydro-benzoimidazol-2-one] | 2.92 | 1350 |
| O=c1[nH]c2cccc(OCCCNCc3ccccc3)c2[nH]1 [Example 4, 4-(3-Benzylamino-propoxy)-1,3-dihydro-benzoimidazol-2-one] | 126 | 5980 |
| O=c1[nH]c2cccc(OCCNCc3cccc4ccccc34)c2[nH]1 [Example 5, 4-{2-[(Naphthalen-1-ylmethyl)-amino]-ethoxy}-1,3-dihydro-benzoimidazol-2-one] | 0.6 | 38.7 |
| CC(C)(C)c1ccc(CNCCOc2cccc3[nH]c(=O)[nH]c23)cc1 [Example 6, 4-[2-(4-tert-Butyl-benzylamino)-ethoxy]-1,3-dihydro-benzoimidazol-2-one] | 0.81 | 47.8 |
| O=c1[nH]c2cccc(OCCNCc3cccs3)c2[nH]1 [Example 7, 4-{2-[(Thiophen-2-ylmethyl)-amino]-ethoxy}-1,3-dihydro-benzoimidazol-2-one] | 0.51 | 255 |
| O=c1[nH]c2cccc(OCCNCc3ccc(Cl)cc3)c2[nH]1 [Example 8, 4-[2-(4-Chloro-benzylamino)-ethoxy]-1,3-dihydro-benzoimidazol-2-one] | 0.3 | 99.5 |
